Measured values taken from patent publication US20040024024A1, “Aromatic sulfone hydroxamates and their use as protease inhibitors” (priority 2001, published 2004).
Where “and” joins values, the source holds several entries; their conditions need not be identical. Equal values may be shown once. Where a name gives a salt, the structure may show the parent alone.

Columns and labels:
Experiment in all cases: In vitro MMP inhibition, Ki determination (fluorogenic substrate II)
Format in all cases: biochemical
Human recombinant MMP-9 = target: T1, Human recombinant MMP-9 (Homo sapiens, UniProt P14780)
T1 construct: made in house; host or cells: MMP-9-transfected HT1080 cells (spent media)
T1 sequence (P14780 107-707 limits assumed): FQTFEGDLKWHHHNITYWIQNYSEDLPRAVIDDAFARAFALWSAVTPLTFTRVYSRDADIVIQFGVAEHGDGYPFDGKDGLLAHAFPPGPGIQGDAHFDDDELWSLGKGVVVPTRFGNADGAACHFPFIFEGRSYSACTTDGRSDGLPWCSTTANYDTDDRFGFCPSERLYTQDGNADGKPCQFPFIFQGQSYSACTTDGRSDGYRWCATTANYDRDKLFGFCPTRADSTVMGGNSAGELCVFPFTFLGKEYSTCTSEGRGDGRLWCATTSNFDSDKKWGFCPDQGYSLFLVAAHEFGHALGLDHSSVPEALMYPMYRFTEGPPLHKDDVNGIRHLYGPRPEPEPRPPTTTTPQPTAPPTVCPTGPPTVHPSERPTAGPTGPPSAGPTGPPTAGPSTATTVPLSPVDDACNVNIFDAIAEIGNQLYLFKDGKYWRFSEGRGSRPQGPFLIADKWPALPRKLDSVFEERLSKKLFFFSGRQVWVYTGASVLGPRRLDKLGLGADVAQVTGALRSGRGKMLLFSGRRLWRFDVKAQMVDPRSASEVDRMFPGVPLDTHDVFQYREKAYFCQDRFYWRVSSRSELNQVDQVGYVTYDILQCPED
Experimental: (§1) Several hydroxamates and salts thereof were analyzed in in vitro assays to determine their ability to inhibit the MMP cleavage of peptide substrates. Inhibition (Ki) and IC50 constants were calculated from the assayed hydroxamate-MMP interactions.
(§2) Human recombinant MMP-1, MMP-2, MMP-9, MMP-13, and MMP-14 were used in this assay. All enzymes were prepared in Assignee's laboratories following usual laboratory procedures. Protocols for the preparation and use of these enzymes are available in the scientific literature. See, e.g., Enzyme Nomenclature (Academic Press, San Diego, Calif., 1992) (and the citations therein). See also, Frije et al., J. Biol. Chem., 26(24), 16766-73 (1994).
The MMP-9 proenzyme was purified by gelatin Sepharose chromatography from spent media of MMP-9-transfected HT1080 cells provided by Dr. Howard Welgus of Washington University (St. Louis, Mo.).
(§3) All MMPs were activated using 4-aminophenylmercuric acetate (“APMA”, Sigma Chemical, St. Louis, Mo.) or trypsin. MMP-9 also was activated using human recombinant MMP-3 (purified in Assignee's laboratory following standard cloning and purification techniques).
(§4) Two fluorogenic, methoxycoumarin-containing polypeptide substrates were used in the MMP inhibition assays:
(§5) MCA-ArgProLeuGlyLeuDpaAlaArgGluArgNH2 (II)
(§6) Here, “Dpa” is 3-(2,4-dinitrophenyl)-L-2,3-diaminopropionyl group, and “MCA” is 7-methoxycoumarin-4-yl acetyl. Substrate (I) was purchased from Baychem (Redwood City, Calif.), and substrate II was prepared Assignee's laboratory. Substrate I was used in the IC50 determination assays, while substrate II was used in the Ki determination assays. In the absence of MMP inhibitory activity, either substrate is cleaved at the Gly-Leu peptide bond. This cleavage separates the highly fluorogenic peptide from the 2,4-dinitrophenyl quencher, thus resulting in increase of fluorescent intensity.
(§7) The stock solutions of the assayed hydroxamates (or salts thereof) were prepared in 1% dimethyl sulfoxide (DMSO). These stock solutions were diluted in Buffer A (100 mM Tris-HCl, 100 mM NaCl, 10 mM CaCl2, 0.05% polyoxyethylene 23 lauryl ether, pH 7.5) to obtain solutions with different hydroxamate concentrations, i.e., assay solutions with different concentrations of the assayed MMP inhibitory compound. The experiment controls contained the same amount of Buffer A/DMSO as the assayed sample, but contained no hydroxamate (or salt thereof).
(§8) The assays from which the Ki determinations were made were performed as follows. The assayed hydroxamate samples were incubated in separate wells of untreated white polystyrene plates (Nunc Nalgene International, Rochester, N.Y.), and analyzed on a Tecan SpectraFlour Plus plate reader. The excitation wavelength was 330 nm, and the emission wavelength—420 nm. All samples (assayed hydroxamates and controls) were incubated in separate plate wells at room temperature for 1 hr in the presence of 4 μM of MMP substrate (II). In the absence of MMP inhibitory activity, substrate II was cleaved at the Gly-Leu bond resulting in an increase of relative fluorescence. Inhibition was observed as a reduced rate of this increase in relative fluorescence. The various hydroxamates were analyzed using a single low enzyme concentration with a single substrate concentration fixed at or below the Km. This protocol is a modification of method by Knight et al., FEBS Lett., 296(3), 263-266 (1992). Apparent inhibitory constants were determined by non-linear regression of reaction velocity as a function of inhibitor and enzyme concentration using Morrison's equation, as described by Kuzmic, Anal. Biochem. 286, 45-50 (2000). Modifications were made in the non-linear regression method to allow a common control reaction rate and effective enzyme concentration to be shared between all dose-response relationships on a given assay plate. […]

Human recombinant MMP-14 = target: T2, Human recombinant MMP-14 (Homo sapiens, UniProt P50281)
T2 construct: The catalytic domain enzyme was expressed in E. coli inclusion bodies, solubilized in urea; made in house
Experimental: as §1, §2
The MMP-14 full length cDNA was provided by Dr. Gregory Goldberg of Washington University (St. Louis, Mo.). The catalytic domain enzyme was expressed in E. coli inclusion bodies, solubilized in urea, purified on a preparative […] reverse phase HPLC column, and then refolded in the presence of zinc acetate and purified for use.
as §3, §4, §5, §6, §7, §8

Human recombinant MMP-13 = target: T3, Human recombinant MMP-13 (Homo sapiens, UniProt P45452)
T3 construct: made in house; host or cells: baculovirus / insect cells
Experimental: as §1, §2
The expressed proenzyme was first purified over a heparin agarose column, and then over a chelating zinc chloride column. The proenzyme was then activated by APMA for use in the assay. Further details on baculovirus expression systems may be found in, for example, Luckow et al., J. Virol., 67, 4566-79 (1993). See also, O'Reilly et al, Baculovirus Expression Vectors: A Laboratory Manual (W. H. Freeman and Co., New York, N.Y., 1992). See also, King et al., The Baculovirus Expression System: A Laboratory Guide (Chapman & Hall, London, England, 1992).
as §3, §4, §5, §6, §7
as §8, with “(2000).” for “(2000). Modifications were made in the non-linear regression method to allow a common control reaction rate and effective enzyme concentration to be shared between all dose-response relationships on a given assay plate.”

[1] = substrate (II) 4 μM, 1 hr room temperature, apparent Ki, values in parenthesis

SMILES | Ki (Human recombinant MMP-9; value in parentheses) | Ki (Human recombinant MMP-13; value in parentheses) | Ki (Human recombinant MMP-14; value in parentheses) | Ki (Human recombinant MMP-9; value in parenthesis) | Ki (Human recombinant MMP-13; value in parenthesis) | Ki (Human recombinant MMP-14; value in parenthesis) | also measured
NC(=O)c1cccc(OCCOc2ccc(S(=O)(=O)C3(C(=O)NO)CCOCC3)cc2)c1 [Example 54] |  |  |  |  |  |  | Ki (Human recombinant MMP-9; [1]): 388 nM; Ki (Human recombinant MMP-14; [1]): 4120 nM
O=C(NO)C1(S(=O)(=O)c2ccc(OCCCc3cccc(-c4ccc5c(c4)OCO5)c3)cc2)CCOCC1 [Example 628] | 1930 nM | 19.8 nM | > 10000 nM |  |  |  | 
O=C(NO)C1(S(=O)(=O)c2ccc(OCCCc3nc(-c4ccccc4)no3)cc2)CCOCC1 [Example 584] | 12.6 nM | 0.944 nM | 6630 nM |  |  |  | 
O=C(NO)C1(S(=O)(=O)c2ccc(OCCCc3cccc(-c4ccc5ccccc5c4)c3)cc2)CCOCC1 [Example 629] | 1300 nM | 89.1 nM | > 10000 nM |  |  |  | 
O=C(NO)C1(S(=O)(=O)c2ccc(OCCCc3cccc(-c4coc5ccccc45)c3)cc2)CCOCC1 [Example 634] | 1300 nM | 19.4 nM | > 10000 nM |  |  |  | 
COCCN1CCC(C(=O)NO)(S(=O)(=O)c2ccc(OCCCc3cc(-c4ccc(F)cc4F)cs3)cc2)CC1 [Example 47, 4-[(4-{3-[4-(2,4-difluorophenyl)thien-2-l]propoxy}phenyl)sulfonyl]-N-hydroxy-1-(2-methoxyethyl)piperidine-4-carboxamide Hydrochloride] |  |  |  |  |  |  | Ki (Human recombinant MMP-9; [1]): 119 nM and 309 nM; Ki (Human recombinant MMP-13; [1]): 0.304 nM and 0.423 nM; Ki (Human recombinant MMP-14; [1]): 3320 nM and 5290 nM
O=C(NO)C1(S(=O)(=O)c2ccc(OCCCc3cccc(-c4cccc5ccccc45)c3)cc2)CCOCC1 [Example 638] | 8770 nM | 68.1 nM | > 10000 nM |  |  |  | 
CCN1CCC(C(=O)NO)(S(=O)(=O)c2ccc(OCCCc3cccc(-c4ccccc4)c3)cc2)CC1 [Example 46] |  |  |  |  |  |  | Ki (Human recombinant MMP-9; [1]): 418 nM; Ki (Human recombinant MMP-13; [1]): 2.29 nM; Ki (Human recombinant MMP-14; [1]): > 10000 nM
O=C(NO)C1(S(=O)(=O)c2ccc(OCCCc3nc(-c4ccc(OC(F)(F)F)cc4)no3)cc2)CCOCC1 [Example 31, tetrahydro-N-hydroxy-4-[[4-[3-[3[4-(trifluoromethoxy)phenyl]-1,2,4-oxadiazol-5-yl]propoxy]phenyl]sulfonyl]-2H-pyran-4-carboxamide] |  |  |  |  |  |  | Ki (Human recombinant MMP-9; [1]): 1600 nM; Ki (Human recombinant MMP-13; [1]): 1.5 nM; Ki (Human recombinant MMP-14; [1]): > 10000 nM
CC(C)c1ccc(-c2cccc(CCCOc3ccc(S(=O)(=O)C4(C(=O)NO)CCOCC4)cc3)c2)cc1 [Example 160] |  |  |  | > 10000 nM |  | > 10000 nM | 
COCCN1CCC(C(=O)NO)(S(=O)(=O)c2ccc(OCCCn3nnc(-c4ccc(OC(F)(F)F)cc4)n3)cc2)CC1 [Example 48] |  |  |  |  |  |  | Ki (Human recombinant MMP-9; [1]): 159 nM; Ki (Human recombinant MMP-13; [1]): 0.127 nM
O=C(NO)C1(S(=O)(=O)c2ccc(OCCCc3cccc(-c4cccc(F)c4)c3)cc2)CCOCC1 [Example 161] |  |  |  | 1730 nM | 20.3 nM |  | 

Second part, led by results:

Ki (Human recombinant MMP-9; value in parentheses) | Ki (Human recombinant MMP-13; value in parentheses) | Ki (Human recombinant MMP-14; value in parentheses) | Ki (Human recombinant MMP-9; value in parenthesis) | Ki (Human recombinant MMP-13; value in parenthesis) | Ki (Human recombinant MMP-14; value in parenthesis) | SMILES | also measured
 |  |  | 427 nM | 1.72 nM | 5150 nM | O=C(NO)C1(S(=O)(=O)c2ccc(OCCCc3cccc(-c4ccccn4)c3)cc2)CCOCC1 [Example 148] | 
 |  |  | 125 nM | 0.587 nM | 5510 nM | O=C(NO)C1(S(=O)(=O)c2ccc(OCCCc3cccc(-c4cccnc4)c3)cc2)CCOCC1 [Example 150] | 
 |  |  | 4230 nM | 16.2 nM | > 10000 nM | Cc1ccc(-c2cccc(CCOc3ccc(S(=O)(=O)C4(C(=O)NO)CCOCC4)cc3)c2)cc1 [Example 127] | 
 |  |  | 2130 nM | 7.35 nM | > 10000 nM | O=C(NO)C1(S(=O)(=O)c2ccc(OCCc3cccc(-c4ccc(F)cc4)c3)cc2)CCOCC1 [Example 123] | 
11.3 nM | 0.24 nM |  |  |  |  | O=C(NCCOc1ccc(S(=O)(=O)C2(C(=O)NO)CCOCC2)cc1)c1cc2ccccc2[nH]1 [Example 599] | 
 |  |  | 281 nM | 0.27 nM | 7870 nM | Cc1cc(OC(F)(F)F)ccc1NC(=O)CCCOc1ccc(S(=O)(=O)C2(C(=O)NO)CCOCC2)cc1 [Example 229] | 
 |  |  | 788 nM |  | 5410 nM | CC(C)C(=O)c1cccc(CCCOc2ccc(S(=O)(=O)C3(C(=O)NO)CCOCC3)cc2)c1 [Example 95] | 
135 nM |  | 6290 nM |  |  |  | O=C(NO)C1(S(=O)(=O)c2ccc(OCCCc3cncc(Br)c3)cc2)CCOCC1 [Example 522] | 
